Assay results: patent publication US20110319379A1, “Substituted Indazole Amides And Their Use As Glucokinase Activators” (priority 2009, published 2011)

Molecular target: T1, recombinant human glucokinase (Homo sapiens, UniProt P35557)
T1 construct: Full-length glucokinase (beta cell isoform) was His-tagged at the N-terminus and purified by a Ni column followed by size exclusion chromatography as described above; His tag; made in house; host or cells: E. coli BL21(DE3), vector pBCGK
T1 sequence (P35557 1-465): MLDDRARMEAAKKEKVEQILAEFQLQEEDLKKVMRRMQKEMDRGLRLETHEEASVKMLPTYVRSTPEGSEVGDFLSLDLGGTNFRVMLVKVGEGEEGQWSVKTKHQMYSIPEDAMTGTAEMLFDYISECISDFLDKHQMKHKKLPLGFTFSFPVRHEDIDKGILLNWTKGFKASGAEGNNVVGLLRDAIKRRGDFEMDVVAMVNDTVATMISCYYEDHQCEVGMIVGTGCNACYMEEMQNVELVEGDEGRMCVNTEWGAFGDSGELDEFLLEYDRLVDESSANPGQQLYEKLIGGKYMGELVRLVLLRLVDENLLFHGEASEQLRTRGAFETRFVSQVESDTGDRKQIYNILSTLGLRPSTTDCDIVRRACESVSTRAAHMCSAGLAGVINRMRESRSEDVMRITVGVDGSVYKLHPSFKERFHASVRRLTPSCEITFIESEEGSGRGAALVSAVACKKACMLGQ
Assay: Assay 2: Evaluating Activator Potency in a Matrix Assay at Multiple Glucose Concentrations
Assay type: biochemical
Settings: Assay 2 matrix assay; 16 glucose concentrations; intrinsic EC50 = concentration affording a 50% reduction in the enzyme's Km (for glucose); read-out: Glucokinase EC50
Protocol: Representative compounds of this invention were evaluated in biochemical assays (Assay 1 or Assay 2) to characterize their glucokinase activation properties.
The recombinant human glucokinase protein utilized in both assays was prepared and purified as described below.
BL21(DE3) cells (Invitrogen Corporation, Carlsbad, Calif.) containing pBCGK (C or N H is) vector were grown at 37° C. (in 2XYT) until the OD600 was between 0.6-1.0. Expression was induced by addition of isopropylthiogalactoside to a final concentration of 0.1-0.2 mM to the cells which were then incubated overnight at 23° C. The next day, cells were harvested via centrifugation at 5000 rpm for 15 minutes at 4° C. The cell pellet was stored at −80° C. for future purification.
Beta Cell Glucokinase His-Taq Purification Conditions: A Ni-NTA (Quigan, Germantown, Md.) column (15-50 mL) was used for separation. Two buffers were prepared, 1) a lysis/nickel equilibration and wash buffer and 2) a nickel elution buffer. The lysis/equilibration/wash buffer was prepared as such: 25 mM HEPES buffer at pH 7.5, 250 mM NaCl, 20 mM imidazole, and 14 mM β-mercaptoethanol as final concentrations. The elution buffer was prepared as such: 25 mM HEPES at pH 7.5, 250 mM NaCl, 400 mM imidazole, and 14 mM β-mercaptoethanol as final concentrations. The buffers were each filtered with a 0.22 μm filter prior to use. The cell pellet (1 L culture) was resuspended in 300 mL of the lysis/equilibration buffer. The cells were then lysed (3 times) with a Microfluidics Model 110Y microfluidizer (Microfluidics Corporation, Newton, Mass.). The slurry was centrifuged with a Beckman Coulter Model LE-80K ultracentrifuge (Beckman Coulter, Fullerton, Calif.) at 40,000 rpm for 45 minutes at 4° C. The supernatant was transferred to a chilled flask. A volume of 20 μl was saved for gel analysis. A Pharmacia AKTA (GMI, Inc., Ramsey, Minn.) purification system was used for separation. The prime lines were purged with lysis/equilibration buffer. The Ni-NTA column was equilibrated with 200 mL of the lysis/equilibration buffer at a flow rate of 5 mL/minute. The supernantant was loaded over the column at 4 mL/minute and the flow-through was collected in a flask. The unbound proteins were washed with lysis/equilibration buffer at a flow rate of 5 mL/minute until the ultraviolet reaches baseline. The protein was then eluted from the column with the imidazole elution buffer via imidazole gradient 20 mM to 400 mM over 320 mL. The column was then stripped of any additional protein with 80 mL of the elution buffer. The elution fractions were each 8 mL, for a total yield of 50 samples. Fractions were analyzed by sodium dodecyl sulfate polyacrylamide (SDS-PAGE) and the fractions containing protein of interest were pooled and concentrated to 10 mL using ultrafiltration cell with a 10,000 molecular weight cut-off (MWCO) Millipore membrane (Sigma-Aldrich, St. Louis, Mo.) under nitrogen gas (60 psi). Protein was further purified by size exclusion chromatography (SEC) using a […] (320 mL) (Amersham Pharmacia, Uppsala, Sweden). SEC was equilibrated with 450 mL sizing buffer containing 25 mM HEPES pH 7.0, 50 mM NaCl, and 5 mM dithiothreitol. Concentrated protein was then loaded over SEC and elution with 400 mL sizing buffer was performed overnight at 0.5 mL/minute. The elution fractions were 5 mL each. The fractions were analyzed by SDS-PAGE and protein containing fractions were pooled. Concentration was measured using Bradford Assay/BSA Standard. Purified protein was stored in small aliquots at −80° C.
Assay 2: Evaluating Activator Potency in a Matrix Assay at Multiple Glucose Concentrations
Utilizing an adaptation of this method, representative compounds of the current invention were evaluated at 22 different concentrations and 16 different glucose concentrations in a coupled enzyme assay system that detects glucokinase activity via depletion of β-NADH.

| EC50 [nM] | SMILES |
| --- | --- |
| 15100 | CCn1cc2c(Oc3cnc(C(=O)N4CCC4)cn3)cc(C(=O)Nc3cnn(C)n3)cc2n1 [Example 1BX, 4-(5-(azetidine-1-carbonyl)pyrazin-2-yloxy)-2-ethyl-N-(2-methyl-2H-1,2,3-triazol-4-yl)-2H-indazole-6-carboxamide] |
| 17500 | CC(C)n1cc2c(Oc3cnc(C(=O)N4CCC4)cn3)cc(C(=O)Nc3cnn(C)n3)cc2n1 [Example 1BY, 4-(5-(azetidine-1-carbonyl)pyrazin-2-yloxy)-2-isopropyl-N-(2-methyl-2H-1,2,3-triazol-4-yl)-2H-indazole-6-carboxamide] |
| 25100 | CCn1cc2c(Oc3cnc(C(=O)N(C)C)cn3)cc(C(=O)Nc3cnn(C)n3)cc2n1 [Example 1BZ, 4-(5-(dimethylcarbamoyl)pyrazin-2-yloxy)-2-ethyl-N-(2-methyl-2H-1,2,3-triazol-4-yl)-2H-indazole-6-carboxamide] |
| 8520 | CCn1cc2c(Oc3ccc(S(C)(=O)=O)cc3)cc(C(=O)Nc3cnn(C)n3)cc2n1 [Example 1CA, 2-ethyl-4-[4-(methylsulfonyl)phenoxy]-N-(2-methyl-2H-1,2,3-triazol-4-yl)-2H-indazole-6-carboxamide] |
| 537 | CCn1cc2c(Oc3ccc(S(C)(=O)=O)cc3)cc(C(=O)Nc3cnc(C)cn3)cc2n1 [Example 1CB, 2-ethyl-N-(5-methylpyrazin-2-yl)-4-[4-(methylsulfonyl)phenoxy]-2H-indazole-6-carboxamide] |
| 1210 | CCn1cc2c(Oc3ccc(S(C)(=O)=O)cc3)cc(C(=O)Nc3ccn(C)n3)cc2n1 [Example 1CC, 2-ethyl-N-(1-methyl-1H-pyrazol-3-yl)-4-[4-(methylsulfonyl)phenoxy]-2H-indazole-6-carboxamide] |
| 261 | CCn1cc2c(Oc3ccc(S(C)(=O)=O)cc3)cc(C(=O)Nc3ccc(C(N)=O)cn3)cc2n1 [Example 1CD, N-(5-carbamoylpyridin-2-yl)-2-ethyl-4-[4-(methylsulfonyl)phenoxy]-2H-indazole-6-carboxamide] |
| 558 | CCn1cc2c(Oc3ccc(S(C)(=O)=O)cc3)cc(C(=O)Nc3ccc(CC(N)=O)cn3)cc2n1 [Example 1CE, N-[5-(2-amino-2-oxoethyl)pyridin-2-yl]-2-ethyl-4[4-(methylsulfonyl)phenoxy]-2H-indazole-6-carboxamide] |
| 1490 | CCn1cc2c(Oc3ccc(S(C)(=O)=O)cc3)cc(C(=O)Nc3ccn(CC(N)=O)n3)cc2n1 [Example 1CG, N-[1-(2-amino-2-oxoethyl)-1H-pyrazol-3-yl]-2-ethyl-4-[4-(methylsulfonyl)phenoxy]-2H-indazole-6-carboxamide] |
| 714 | CCn1cc2c(Oc3ccc(S(C)(=O)=O)cc3)cc(C(=O)Nc3ccc(F)cn3)cc2n1 [Example 1CI, 2-ethyl-N-(5-fluoropyridin-2-yl)-4-[4-(methylsulfonyl)phenoxy]-2H-indazole-6-carboxamide] |
| 282 | Cn1cc(NC(=O)c2cc(Oc3ccc(S(C)(=O)=O)cc3)c3cn(C)nc3c2)nn1 [Example 1CJ, 2-methyl-4-[4-(methylsulfonyl)phenoxy]-N-(1-methyl-1H-1,2,3-triazol-4-yl)-2H-indazole-6-carboxamide] |
| 396 | CCn1cc2c(Oc3ccc(S(C)(=O)=O)cc3)cc(C(=O)Nc3ccc(C(=O)OC)cn3)cc2n1 [Example 1CK, methyl 6-[({2-ethyl-4-[4-(methylsulfonyl)phenoxy]-2H-indazol-6-yl}carbonyl)amino]nicotinate] |
| 919 | CCn1cc2c(Oc3ccc(S(C)(=O)=O)cc3)cc(C(=O)Nc3ncns3)cc2n1 [Example 1CL, 2-ethyl-4-[4-(methylsulfonyl)phenoxy]-N-1,2,4-thiadiazol-5-yl-2H-indazole-6-carboxamide] |
| 2450 | CCn1cc2c(Oc3cnc(NC(C)=O)cn3)cc(C(=O)Nc3ccc(C)cn3)cc2n1 [Example 1CM, 4-(5-acetamidopyrazin-2-yloxy)-2-ethyl-N-(5-methylpyridin-2-yl)-2H-indazole-6-carboxamide] |
| 2320 | CC(=O)N(C)c1cnc(Oc2cc(C(=O)Nc3ccc(C)cn3)cc3nn(C)cc23)cn1 [Example 1CN, 2-methyl-4-(5-(N-methylacetamido)pyrazin-2-yloxy)-N-(5-methylpyridin-2-yl)-2H-indazole-6-carboxamide] |
| 1880 | CCn1cc2c(Oc3cnc(C(N)=O)cn3)cc(C(=O)Nc3ccc(C)cn3)cc2n1 [Example 1CO, 4-(5-carbamoylpyrazin-2-yloxy)-2-ethyl-N-(5-methylpyridin-2-yl)-2H-indazole-6-carboxamide] |
| 2280 | CCn1cc2c(Oc3cnc(C(=O)N4CCOCC4)cn3)cc(C(=O)Nc3ccc(C)cn3)cc2n1 [Example 1CP, 2-ethyl-N-(5-methylpyridin-2-yl)-4-(5-(morpholine-4-carbonyl)pyrazin-2-yloxy)-2H-indazole-6-carboxamide] |
| 2880 | CCn1cc2c(Oc3ccc(S(N)(=O)=O)cc3)cc(C(=O)Nc3ccn(C)n3)cc2n1 [Example 1CQ, 4-[4-(aminosulfonyl)phenoxy]-2-ethyl-N-(1-methyl-1H-pyrazol-3-yl)-2H-indazole-6-carboxamide] |
| 586 | CCn1cc2c(Oc3ccc(S(N)(=O)=O)cc3)cc(C(=O)Nc3cnc(C)cn3)cc2n1 [Example 1CR, 4-[4-(aminosulfonyl)phenoxy]-2-ethyl-N-(5-methylpyrazin-2-yl)-2H-indazole-6-carboxamide] |
| 418 | CCn1cc2c(Oc3ccc(S(N)(=O)=O)cc3)cc(C(=O)Nc3cnc(OC)cn3)cc2n1 [Example 1CS, 4-[4-(aminosulfonyl)phenoxy]-2-ethyl-N-(5-methoxypyrazin-2-yl)-2H-indazole-6-carboxamide] |
| 1820 | CCn1cc2c(Oc3ccc(S(N)(=O)=O)cc3)cc(C(=O)Nc3ccc(F)cn3)cc2n1 [Example 1CT, 4-[4-(aminosulfonyl)phenoxy]-2-ethyl-N-(5-fluoropyridin-2-yl)-2H-indazole-6-carboxamide] |
| 1370 | CCc1cnc(NC(=O)c2cc(Oc3ccc(S(N)(=O)=O)cc3)c3cn(CC)nc3c2)cn1 [Example 1CU, 4-[4-(aminosulfonyl)phenoxy]-2-ethyl-N-(5-ethylpyrazin-2-yl)-2H-indazole-6-carboxamide] |
| 715 | CCn1cc2c(Oc3ccc(S(C)(=N)=O)cc3)cc(C(=O)Nc3ccc(C)cn3)cc2n1 (stereo not drawn) [Example 1CV, 2-ethyl-N-(5-methylpyridin-2-yl)-4-[4-(S-methylsulfonimidoyl)phenoxy]-2H-indazole-6-carboxamide] |
| 2470 | CCn1cc2c(Oc3ccc(S(C)(=N)=O)cc3)cc(C(=O)Nc3ccn(C)n3)cc2n1 (stereo not drawn) [Example 1CY, 2-ethyl-N-(1-methyl-1H-pyrazol-3-yl)-4-[4-(S-methylsulfonimidoyl)phenoxy]-2H-indazole-6-carboxamide] |
